Assay results reported in patent US7030132B2, “Method of improving bioavailability of orally administered drugs, a method of screening for enhancers of such bioavailability and novel pharmaceutical compositions for oral delivery of drugs” (Cancer Research Ventures Limited, priority 1999, dated 2006).
pIC50: −log10 of the molar value. Like-named read-outs stand apart in the source and are kept apart here.

Assays:
IGROV1 parental cells = assay: Cytotoxicity, sulphorhodamine (SRB) assay, IGROV1 parental cells; assay type: cell-based, human; conditions: for pIC50: IGROV1 parental cells; for ratio −/+ GF120918 (IGROV1): IC50 without / with 2 μM GF120918, IGROV1
Description: (§1) Cytotoxicity was Determined Using the Sulphorhodamine (SRB) Assay. Cells were plated in 96-wells plates, 1500 cells/well. Cells were cultured for 48 h at 37° C. and 5% CO2 in the absence of drugs. Then, in a serial dilution from approximately 1 μM to approximately 0.05 nM drugs were added, and cells were cultured for another 5 days at 37° C. and 5% CO2 Next cells are fixated in the plate, washed, and coloured with SRB. After 20 min unbound SRB is washed away using 0.1 M acetic acid. SRB that is bound to the cells is dissolved in 10 mM Tris-HCl buffer. Using a 96-well plate reader the absorbance at 540 nm is measured. For each drug the IC50 value was determined. Results are the mean of at least 3 experiments.

T8 resistant cells = assay: Cytotoxicity, sulphorhodamine (SRB) assay, T8 resistant (BCRP overexpressing) cells; assay type: cell-based, human; conditions: for pIC50: T8 resistant cells; for ratio −/+ GF120918 (T8): IC50 without / with 2 μM GF120918, T8
Description: as §1

[1] = Effect of GF120918 on oral bioavailability of topotecan in mdr1a/1b (-/-) mice; assay type: in vivo; conditions: topotecan 1 mg/kg oral, GF120918 50 mg/kg oral 15 min prior, plasma
From the text: The tests with mice assessed the bioavailability of the drug in mdr1a/1b double knock out mice in the presence and the absence of a BCRP inhibitor. The bioavailability tests can also be carried out with either MRP and/or P-gp knock out mice thus enabling assessment of whether any effect found due to the presence of the bioinhibitor is due solely to BCRP, not due to P-gp and/or MRP. Thus it can be determined whether the particular drug transported is transported using one or more transport systems. The drug to be transported can be provided with a detectable marker to assess where it is located and to be able to quantitate it. Some drugs can be detected and quantitated in plasma without use of a detectable marker. The methodology employed is analogous to that disclosed in the Lancet article discussed above and is also described in Br. J. Cancer 1997, 76: 1181–1183. The methodology is thus considered to be incorporated by reference and is considered enabled to a person skilled in the art. […]
GF120918 was suspended in a hydroxypropylmethylcellulose (10 g/l): Tween 80 (2% v/v): H2O (0.5:1:98.5 v/v/v) formulation for oral administration, at 5 mg.ml^−1. […] Topotecan levels in plasma were determined by HPLC analysis as described by Rosing et al., 1995, J. Chromatography, 668: 107–115, and are depicted in FIG. 1.

[2] = Clinical trial: oral topotecan with or without GF120918, plasma levels; assay type: in vivo; conditions: three patients, topotecan 1.0 mg/m2 oral, with or without oral GF120918 (1000 mg)
Description: In this example the first results of a clinical trial are shown. Three patients received topotecan orally at a dosis of 1.0 mg.m^−2. Topotecan was administered with or without GF120918 (1000 mg). For illustrative purposes, the plasma concentration vs. time is shown for one patient in FIG. 2. In FIG. 3 the average including the standard deviation is shown for all three patients.

[3] = Homo sapiens, IGROV-1, 120 h, without GF120918, 5 days drug exposure, read-out: IGROV1 IC50
[4] = + 2 μM GF120918, read-out: IGROV1 + GF120918 IC50
[5] = Homo sapiens, without GF120918, read-out: T8 IC50
[6] = + 2 μM GF120918, read-out: T8 + GF120918 IC50
[7] = without GF120918, 5 days drug exposure, read-out: IGROV1 IC50
[8] = without GF120918, read-out: T8 IC50

increase in the area under the curve (AUC) of oral topotecan [1] | systemic exposure (AUC) to oral topotecan [2] | SMILES | effect of GF120918 on the sensitivity of the parental cell line IGROV1 (IGROV1 parental cells; 2 μM GF120918, topoisomerase I drugs) | reversal of resistance of T8 for topoisomerase I drugs (T8 resistant cells; addition of 2 μM GF120918) | pIC50 (IGROV1 parental cells; [3]) | ratio −/+ GF120918 (IGROV1) (IGROV1 parental cells) | pIC50 (IGROV1 parental cells; [4]) | Rf (resistance factor) T8 + GF120918 (T8 resistant cells; + 2 μM GF120918) | pIC50 (T8 resistant cells; [5]) | ratio −/+ GF120918 (T8) (T8 resistant cells) | pIC50 (T8 resistant cells; [6]) | Rf (resistance factor, IC50 T8 / IC50 IGROV1) (T8 resistant cells; without GF120918) | pIC50 (IGROV1 parental cells; [7]) | pIC50 (T8 resistant cells; [8])
– | – | COc1cc2c(cc1OC)CN(CCc1ccc(NC(=O)c3cccc4c(=O)c5cccc(OC)c5[nH]c34)cc1)CC2 [GF120918] | no or very little effect | for the greater part reversed | – | – | – | – | – | – | – | – | – | –
– | – | CCc1c2c(nc3ccc(OC(=O)N4CCC(N5CCCCC5)CC4)cc13)-c1cc3c(c(=O)n1C2)COC(=O)[C@]3(O)CC [CPT11, irinotecan] | – | – | 6.26 | 0.84 | 6.19 | 4.7 | 4.47 | 11.2 | 5.52 | 62 | – | –
– | – | CC[C@@]1(O)C(=O)OCc2c1cc1n(c2=O)Cc2c-1nc1ccccc1c2CC[Si](C)(C)C [BNP1350] | – | – | 9.36 | 0.53 | 9.08 | 4.1 | 8.31 | 1.4 | 8.46 | 11 | – | –
– | – | CCc1c2c(nc3ccc(O)cc13)-c1cc3c(c(=O)n1C2)COC(=O)[C@]3(O)CC [SN-38] | – | – | – | 1.66 | 8.96 | 6.0 | – | 64.1 | 8.18 | 231 | 8.74 | 6.38
– | – | CC[C@@]1(O)C(=O)OCc2c1cc1n(c2=O)Cc2c-1nc1cc3c(cc1c2CN1CCN(C)CC1)OCCO3 [GG211] | – | – | – | 0.74 | 9.06 | 5.3 | – | 4.9 | 8.34 | 35 | 9.19 | 7.65
approximately 6 fold | increased systemic exposure | CC[C@@]1(O)C(=O)OCc2c1cc1n(c2=O)Cc2cc3c(CN(C)C)c(O)ccc3nc2-1 [topotecan] | – | – | 8.05 | 0.97 | 8.03 | 4.3 | 6.01 | 24.4 | 7.40 | 110 | – | –
– | – | CC[C@@]1(O)C(=O)OCc2c1cc1n(c2=O)Cc2c-1nc1cc(F)c(C)c3c1c2C(N)CC3.CS(=O)(=O)O (stereo partly shown) [DX8951f] | – | – | – | 0.60 | 9.77 | 2.3 | – | 7.4 | 9.41 | 29 | 10.00 | 8.54
